Structures can show the parent of a compound that is named as a salt. Where two headings read alike, the source gives them in different places.
Biological target: T1, IKK2 (Homo sapiens, UniProt O14920)
T1 construct: made in house; host or cells: insect cells (baculovirus, pFastBac; SF9)
T1 sequence (O14920 1-756): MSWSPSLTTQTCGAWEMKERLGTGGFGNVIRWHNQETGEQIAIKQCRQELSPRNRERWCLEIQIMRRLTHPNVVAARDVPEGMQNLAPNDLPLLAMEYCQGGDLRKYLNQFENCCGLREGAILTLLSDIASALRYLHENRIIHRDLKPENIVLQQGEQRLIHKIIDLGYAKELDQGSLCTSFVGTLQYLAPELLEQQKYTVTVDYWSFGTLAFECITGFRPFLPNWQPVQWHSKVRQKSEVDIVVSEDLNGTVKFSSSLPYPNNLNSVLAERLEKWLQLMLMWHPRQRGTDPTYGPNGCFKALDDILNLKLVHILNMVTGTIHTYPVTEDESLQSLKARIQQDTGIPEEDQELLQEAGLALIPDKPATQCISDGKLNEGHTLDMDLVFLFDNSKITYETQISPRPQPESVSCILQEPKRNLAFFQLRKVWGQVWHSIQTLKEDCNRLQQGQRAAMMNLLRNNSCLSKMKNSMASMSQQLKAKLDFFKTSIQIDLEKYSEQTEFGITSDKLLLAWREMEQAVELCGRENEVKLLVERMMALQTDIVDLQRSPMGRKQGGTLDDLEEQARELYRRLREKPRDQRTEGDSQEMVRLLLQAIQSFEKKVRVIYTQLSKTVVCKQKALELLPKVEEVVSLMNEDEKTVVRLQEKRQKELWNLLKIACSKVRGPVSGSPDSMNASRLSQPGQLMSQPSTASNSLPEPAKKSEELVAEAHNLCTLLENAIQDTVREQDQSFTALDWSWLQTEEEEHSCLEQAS
Test: IKKβ Resin Enzyme Assay (IKK2 resin)
Assay type: biochemical
Method in brief: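 Radiometric test: [γ-33P]ATP incorporation into a biotinylated IκBα peptide, 30 min at 25° C, pH 7.6 Hepes with MgCl2/MnCl2 and 1 μM cold ATP. Reaction is quenched with Dowex resin and the supernatant is counted. Kinase is FLAG-purified homodimeric recombinant human IKK2 from insect cells.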

[1] = Table 4, read-out: IKK2 Resin IC50
[2] = Table 3, read-out: IKK Resin IC50
[3] = Table for Examples 381-385 (headed TABLE 14), read-out: IKK2 Resin IC50
[4] = Table 2, read-out: IKK Resin IC50
[5] = Table 6, read-out: IKK2 Resin IC 50

NC(=O)c1nn(-c2ccc3c(c2)OCO3)c2c1CCc1ccc(NC(=O)c3ccc(F)cc3Cl)cc1-2 [Example 164, 1-(1,3-benzodioxol-5-yl)-8-[(2-chloro-4-fluorobenzoyl)amino]-4,5-dihydro-1H-benzo[g]indazole-3-carboxamide]
IC50 [1]: ≤ 1000 nM

CS(=O)(=O)c1ccc(-n2nc(C(N)=O)c3c2-c2cc(NC(=O)c4cc(F)ccc4[N+](=O)[O-])ccc2CC3)cc1 [Example 151, 8-[(5-fluoro-2-nitrobenzoyl)amino]-1-[4-(methylsulfonyl)phenyl]-4,5-dihydro-1H-benzo[g]indazole-3-carboxamide]
IC50 [2]: ≤ 1000 nM

NC(=O)c1nn(-c2ccc(C#CCO)cc2)c2c1CCc1ccc(NC(=O)c3cccnc3Cl)cc1-2 [Example 386, 8-{[(2-chloropyridin-3-yl)carbonyl]amino}-1-[4-(3-hydroxyprop-1-ynyl)phenyl]-4,5-dihydro-1H-benzo[g]indazole-3-carboxamide]
IC50 (Table 17, read-out: IKK2 Resin IC50): ≤ 1000 nM

COc1ccc(C(=O)Nc2ccc3c(c2)-c2c(c(C(N)=O)nn2-c2ccc4c(c2)OCO4)CC3)c(Cl)c1 [Example 182, 1-(1,3-benzodioxol-5-yl)-8-[(2-chloro-4-methoxybenzoyl)amino]-4,5-dihydro-1H-benzo[g]indazole-3-carboxamide]
IC50 [1]: ≤ 1000 nM

NC(=O)c1nn(-c2ccsc2)c2c1CCc1ccc(NC(=O)c3ccncc3Cl)cc1-2 [Example 383, 8-[(3-chloroisonicotinoyl)amino]-1-thien-3-yl-4,5-dihydro-1H-benzo[g]indazole-3-carboxamide]
IC50 [3]: ≤ 1000 nM

NC(=O)c1nn(-c2cccc(O)c2)c2c1CCc1ccc(NC(=O)c3ccncc3Cl)cc1-2 [Example 281, 8-[(3-chloroisonicotnoyl)amino]-1-(3-hydroxyphenyl)-4,5-dihydro-1H-benzo[g]indazole-3-carboxamide]
IC50 (Table 10, read-out: IKK2 Resin IC50): ≤ 1000 nM

NC(=O)c1nn(-c2cc(F)cc(F)c2)c2c1CCc1ccc(NC(=O)c3ccncc3Cl)cc1-2 [Example 355, 8-[(3-chloroisonicotinoyl)amino]-1-(3,5-difluorophenyl)-4,5-dihydro-1H-benzo[g]indazole-3-carboxamide]
IC50 (Table 14, read-out: IKK2 Resin IC50): ≤ 1000 nM

CS(=O)(=O)c1ccc(-n2nc(C(N)=O)c3c2-c2cc(NC(=O)c4cccc([N+](=O)[O-])c4Cl)ccc2CC3)cc1 [Example 135, 8-[(2-chloro-3-nitrobenzoyl)amino]-1-[4-(methylsulfonyl)phenyl]-4,5-dihydro-1H-benzo[g]indazole-3-carboxamide]
IC50 [2]: ≤ 1000 nM

NC(=O)c1nn(-c2ccc3c(c2)OCO3)c2c1CCc1ccc(NC(=O)c3ccc(Cl)cc3Cl)cc1-2 [Example 195, 1-(1,3-benzodioxol-5-yl)-8-[(2,4-dichlorobenzoyl)amino]-4,5-dihydro-1H-benzo[g]indazole-3-carboxamide]
IC50 [1]: ≤ 1000 nM

NC(=O)c1nn(-c2ccc3c(c2)OCO3)c2c1CCc1ccc(NC(=O)c3ccncc3Cl)cc1-2 [Example 170, 1-(1,3-benzodioxol-5-yl)-8-[(3-chloroisonicotinoyl)amino]-4,5-dihydro-1H-benzo[g]indazole-3-carboxamide]
IC50 [1]: ≤ 1000 nM

NC(=O)c1nn(-c2ccc3c(c2)OCO3)c2c1CCc1ccc(NC(=O)c3ccc([N+](=O)[O-])cc3Cl)cc1-2 [Example 184, 1-(1,3-benzodiaxol-5-yl)-8-[(2-chloro-4-nitrobenzoyl)amino]-4,5-dihydro-1H-benzo[g]indazole-3-carboxamide]
IC50 [1]: ≤ 1000 nM

CSc1ccc(-n2nc(C(N)=O)c3c2-c2cc(NC(=O)c4ccncc4Cl)ccc2CC3)cc1 [Example 412, 8-[(3-chloroisonicotinoyl)amino]-1-[4-(methylthio)phenyl]-4,5-dihydro-1H-benzo[g]indazole-3-carboxamide hydrochloride]
IC50 (Table 19, read-out: IKK2 Resin IC50): ≤ 1000 nM

NC(=O)c1nn(-c2ccc3c(c2)OCO3)c2c1CCc1ccc(NC(=O)c3cc4c(cc3Cl)OCO4)cc1-2 [Example 168, 1-(1,3-benzodioxol-5-yl)-8-{[(6-chloro-1,3-benzodioxol-5-yl)carbonyl]amino}-4,5-dihydro-1H-benzo[g]indazole-3-carboxamide]
IC50 [1]: ≤ 1000 nM

Cc1ncccc1C(=O)Nc1ccc2c(c1)-c1c(c(C(N)=O)nn1-c1ccc(S(C)(=O)=O)cc1)CC2 [Example 100]
IC50 [4]: ≤ 1000 nM

CS(=O)(=O)c1ccc(-n2nc(C(N)=O)c3c2-c2cc(NC(=O)c4cccc(F)c4F)ccc2CC3)cc1 [Example 101, 8-[(2,3-difluorobenzoyl)amino]-1-[4-(methylsulfonyl)phenyl]-4,5-dihydro-1H-benzo[g]mdazole-3-carboxamide]
IC50 [4]: ≤ 1000 nM

CS(=O)(=O)c1ccc(-n2nc(C(N)=O)c3c2-c2cc(NC(=O)c4ccccc4Cl)ccc2CC3)nc1 [Example 367, 8-[(2-chlorobenzoyl)amino]-1-[5-(methylsulfonyl)pyridin-2-yl]-4,5-dihydro-1H-benzo[g]indazole-3-carboxamide]
IC50 (read-out: IKK-2 resin IC50): ≤ 1000 nM

CN(C)S(=O)(=O)c1ccc(-n2nc(C(N)=O)c3c2-c2cc(NC(=O)c4ccccc4Cl)ccc2CC3)cc1 [Example 50, 8-[(2-chlorobenzoyl)amino]-1-{4-[(dimethylamino)sulfonyl]phenyl}-4,5-dihydro-1H-benzo[g]indazole-3-carboxamide]
IC50 (Table 1, read-out: IKK2-resin): ≤ 1000 nM

NC(=O)c1nn(-c2ccc(F)cc2)c2c1CCc1ccc(NC(=O)c3cc(Cl)cnc3Cl)cc1-2 [Example 223, 8-{[(2,5-dichloropyridin-3-yl)carbonyl]amino}-1-(4-fluorophenyl)-4,5-dihydro-1H-benzo[g]indazole-3-carboxamide]
IC50 [5]: ≤ 1000 nM

Cc1c(O)cccc1C(=O)Nc1ccc2c(c1)-c1c(c(C(N)=O)nn1-c1ccc3c(c1)OCO3)CC2 [Example 198, 1-(1,3-benzodioxol-5-yl)-8-[(3-hydroxy-2-methylbenzoyl)amino]-4,5-dihydro-1H-benzo[g]indazole-3-carboxamide]
IC50 [1]: ≤ 1000 nM

CC1(C)Cc2c(C(N)=O)nn(-c3ccc4c(c3)OCO4)c2-c2cc(NC(=O)c3ccncc3Cl)ccc21 [Example 435, 1-(1,3-benzodioxol-5-yl)-8-[(3-chloroisonicotinoyl)amino]-5,5-dimethyl-4,5-dihydro-1H-benzo[g]indazole-3-carboxamide]
IC50 (Table 22, read-out: IKK2 Resin IC50): ≤ 1000 nM

CC1(C)OCC(COc2cccc(-n3nc(C(N)=O)c4c3-c3cc(NC(=O)c5ccncc5Cl)ccc3CC4)c2)O1 (stereo not drawn) [Example 275, 8-[(3-chloroisonicotinoyl)amino]-1-{3-[(2,2-dimethyl-1,3-dioxolan-4-yl)methoxy]phenyl}-4,5-dihydro-1H-benzo[g]indazole-3-carboxamide]
IC50 (Table 9, read-out: IKK2 Resin IC50): 1000 to 10000 nM

CC(=O)CCc1ccc(-n2nc(C(N)=O)c3c2-c2cc(NC(=O)c4cccnc4Cl)ccc2CC3)cc1 [Example 302, 8-{[(2-chloropyridin-3-yl)carbonyl]amino}-1-[4-(3-oxobutyl)phenyl]-4,5-dihydro-1H-benzo[g]indazole-3-carboxamide]
IC50 (Table 11, read-out: IKK2 Resin IC50): ≤ 1000 nM

COCCNC(=O)/C=C/c1ccc(-n2nc(C(N)=O)c3c2-c2cc(NC(=O)c4ccccc4Cl)ccc2CC3)cc1 [Example 309, 8-[(2-chlorobenzoyl)amino]-1-(4-{(1E)-3-[(2-methoxyethyl)amino]-3-oxoprop-1-enyl}phenyl)-4,5-dihydro-1H-benzo[g]indazole-3-carboxamide]
IC50 (Table 12, read-out: IKK2 Resin IC50): ≤ 1000 nM

CS(=O)(=O)c1ccc(-n2nc(C(N)=O)c3c2-c2cc(NC(=O)c4ccc([N+](=O)[O-])cc4Cl)ccc2CC3)cc1 [Example 146, 8-[(2-chloro-4-nitrobenzoyl)amino]-1-[4-(methylsulfonyl)phenyl]-4,5-dihydro-1H-benzo[g]indazole-3-carboxamide]
IC50 [2]: ≤ 1000 nM

NC(=O)c1nn(-c2ccc(F)cc2)c2c1CCc1ccc(NC(=O)c3cc(N)ccc3Cl)cc1-2 [Example 236, 8-[(5-amino-2-chlorobenzoyl)amino]-1-(4-fluorophenyl)-4,5-dibydro-1H-benzo[g]indazole-3-carboxamide]
IC50 [5]: ≤ 1000 nM

Cc1ccc([N+](=O)[O-])c(C(=O)Nc2ccc3c(c2)-c2c(c(C(N)=O)nn2-c2ccc(S(C)(=O)=O)cc2)CC3)c1 [Example 153]
IC50 [2]: ≤ 1000 nM

NC(=O)c1nn(-c2ccc(N)nc2)c2c1CCc1ccc(NC(=O)c3ccncc3Cl)cc1-2 [Example 381, 1-(6-aminopyridin-3-yl)-8-[(3-chloroisonicotinoyl)amino]-4,5-dihydro-1H-benzo[g]indazole-3-carboxamide]
IC50 [3]: ≤ 1000 nM

From US7186743B2, “Substituted pyrazolyl compounds for the treatment of inflammation” (Pharmacia Corporation, priority 2001, dated 2007)
